We go through 20 compounds from patent publication US10231956B2, “3-(1H-pyrrolo[3,2-C]pyridin-2-YL)-1 H-pyrazolo[4,3-B]pyridines and therapeutic uses thereof” (Samumed, LLC, priority 2015, dated 2019).

SMILES strings stand for the structures. pEC50: −log10 of the molar value.

Assay [1] relates to primary human mesenchymal stem cells (hMSCs). As to the kind of experiment: Induction of chondrogenesis in primary human mesenchymal stem cells (nodule count). In kind it is cell-based. Conditions: 144 h, 6 days; for Emax: TGF-β3 10 ng/mL as positive control, read-out: Max. Activity as % TGF-β3 activity; for EC50: concentration required to induce 50% levels of chondrogenesis vs TGF-β3, read-out: Conc (nM) of 50% TGF-β3 activity. Here is the method: Representative compounds were screened using primary human mesenchymal stem cells (hMSCs) to determine their ability to induce chondrogenesis (process by which cartilage is developed).
Human Mesenchymal Stem Cell Culture: Primary human mesenchymal stem cells (hMSCs) were purchased from Lonza (Walkersville, Md.) and expanded in Mesenchymal Stem Cell Growth Media (Lonza). Cells between passage 3 and 6 were used for the experiments.
Compound Screening: Each compound was dissolved in DMSO as a 10 mM stock and used to prepare compound source plates. Serial dilution (1:3, 6-point dose-response curves from 2700 nM to 10 nM) and compound transfer was performed using the ECHO 550 (Labcyte, Sunnyvale, Calif.) into 96-well clear bottom assay plates (Greiner Bio-One) with appropriate DMSO backfill for a final DMSO concentration of 0.03%. hMSCs were plated at 20,000 cells/well in 250 μL/well Incomplete Chondrogenic Induction Medium (Lonza; DMEM, dexamethasone, ascorbate, insulin-transferrin-selenium [ITS supplement], gentamycin-amphotericin [GA-1000], sodium pyruvate, proline and L-glutamine). TGF-β3 (10 ng/mL) was used as a positive control for differentiation while negative control wells were treated with 75 nL DMSO for normalization and calculating EC50 values. Cells were incubated at 37° C. and 5% CO2 for 6 days. To image chondrogenic nodules, the cells were fixed using 4% formaldehyde (Electron Microscopy Sciences), and stained with 2 μg/mL Rhodamine B (Sigma-Aldrich) and 20 μM Nile Red (Sigma-Aldrich) [Johnson K., et. al, A Stem Cell-Based Approach to Cartilage Repair, Science, (2012), 336(6082), 717-721]. The nodules imaged (4 images per well at 4× magnification) by excitation at 531 nm and emission at 625 nm and quantified using the CellInsight CX5 (Thermo Scientific). Number of nodules in each well was normalized to the average of 3 DMSO treated wells on the same plate using Excel (Microsoft Inc.). The normalized averages (fold change over DMSO) of 3 replicate wells for each compound concentration were calculated. Due to solubility limitations of some of the compounds, curve fitting was incomplete leading to inaccurate EC50 determinations.
Using TGF-β3 as a positive control, the concentration of representative compounds required to induce 50% levels of chondrogenesis is reported. In addition, the maximum activity of each compound and the respective dose that each compound reached maximum chondrogenesis activity is reported.

A further assay relates to IL-6. Kind of assay: IL-6 inhibition in LPS-stimulated THP-1 cells (HTRF). The format is cell-based. Conditions: Homo sapiens; for pEC50: LPS 500 ng/mL, 22 hours, IL6 HTRF; for inhibition at 10 µM: given for EC50 >10 μM, LPS, IL6, 10 μM, read-out: percent inhibition at 10 μM.

For `FC1(F)CCN(Cc2cncc(-c3ccc4[nH]nc(-c5cc6c(N7CCCCC7)nccc6[nH]5)c4n3)c2)C1` [Compound 194, 5-(5-((3,3-Difluoropyrrolidin-1-yl)methyl)pyridin-3-yl)-3-(4-(piperidin-1-yl)-1H-pyrrolo[3,2-c]pyridin-2-yl)-1H-pyrazolo[4,3-b]pyridine], in assay [1], the Emax is 123% and the EC50 stood at 30 nM. In addition, the pEC50 with IL-6 was 6.73.

Take `Cc1ccncc1-c1ccc2[nH]nc(-c3cc4c(-c5cc(F)cc(CNS(C)(=O)=O)c5)nccc4[nH]3)c2n1` [Compound 481, N-(3-Fluoro-5-(2-(5-(4-methylpyridin-3-yl)-1H-pyrazolo[4,3-b]pyridin-3-yl)-1H-pyrrolo[3,2-c]pyridin-4-yl)benzyl)methanesulfonamide]: in assay [1], the Emax was 98% and the EC50 worked out at 10 nM. For the same compound, the pEC50 in the assay with IL-6 was 7.35.

On to `Fc1cccc(-c2nccc3[nH]c(-c4n[nH]c5ccc(-c6cccnc6)nc45)cc23)c1` [Compound 4, 3-(4-(3-Fluorophenyl)-1H-pyrrolo[3,2-c]pyridin-2-yl)-5-(pyridin-3-yl)-1H-pyrazolo[4,3-b]pyridine], for which the Emax in assay [1] was 45%. The compound also had a pEC50 with IL-6 of 7.29.

For the compound `Fc1ccc(-c2nccc3[nH]c(-c4n[nH]c5ccc(-c6cncc(OC7CCNCC7)c6)nc45)cc23)cc1` [Compound 528, 3-(4-(4-Fluorophenyl)-1H-pyrrolo[3,2-c]pyridin-2-yl)-5-(5-(piperidin-4-yloxy)pyridin-3-yl)-1H-pyrazolo[4,3-b]pyridine], in assay [1], the Emax came to 54% and the EC50 was 10 nM. The pEC50 with IL-6 is 6.14.

`Fc1ccc(-c2nccc3[nH]c(-c4n[nH]c5ccc(-c6cncc(CN7CCC(F)(F)C7)c6)nc45)cc23)cc1` [Compound 54, 5-(5-((3,3-Difluoropyrrolidin-1-yl)methyl)pyridin-3-yl)-3-(4-(4-fluorophenyl)-1H-pyrrolo[3,2-c]pyridin-2-yl)-1H-pyrazolo[4,3-b]pyridine]: in assay [1], the Emax came out at 106% and the EC50 stood at 900 nM. Also, the pEC50 in the assay with IL-6 is 6.92.

`CCCCC(=O)Nc1cncc(-c2ccc3[nH]nc(-c4cc5c(N6CCCCC6)nccc5[nH]4)c3n2)c1` [Compound 187, N-(5-(3-(4-(Piperidin-1-yl)-1H-pyrrolo[3,2-c]pyridin-2-yl)-1H-pyrazolo[4,3-b]pyridin-5-yl)pyridin-3-yl)pentanamide]: in assay [1], the Emax came out at 54% and the EC50 worked out at 30 nM. In the assay on IL-6, this compound gave a pEC50 of 6.99.

As to `c1cncc(-c2ccc3[nH]nc(-c4cc5c(N6CCCCC6)nccc5[nH]4)c3n2)c1` [Compound 172, 3-(4-(Piperidin-1-yl)-1H-pyrrolo[3,2-c]pyridin-2-yl)-5-(pyridin-3-yl)-1H-pyrazolo[4,3-b]pyridine], the Emax in assay [1] stood at 29%. The compound further showed a pEC50 in the assay with IL-6 of 7.08.

As for `CN1CCN(c2nccc3[nH]c(-c4n[nH]c5ccc(-c6cncc(CN7CCCCC7)c6)nc45)cc23)CC1` [Compound 239, 3-(4-(4-methylpiperazin-1-yl)-1H-pyrrolo[3,2-c]pyridin-2-yl)-5-(5-(piperidin-1-ylmethyl)pyridin-3-yl)-1H-pyrazolo[4,3-b]pyridine], in assay [1], the Emax stood at 71% and the EC50 was determined as 10 nM. The pEC50 in the assay on IL-6 was 5.40.

Turning to `CCNCc1cncc(-c2ccc3[nH]nc(-c4cc5cnccc5[nH]4)c3n2)c1` [Compound 258, N-((5-(3-(1H-Pyrrolo[3,2-c]pyridin-2-yl)-1H-pyrazolo[4,3-b]pyridin-5-yl)pyridin-3-yl)methyl)ethanamine], in assay [1], the Emax worked out at 99% and the EC50 stood at 2700 nM. Besides, in the assay on IL-6, the pEC50 was 6.34.

With `CS(=O)(=O)NCc1cc(F)cc(-c2nccc3[nH]c(-c4n[nH]c5ccc(-c6cncc(NC(=O)Cc7ccccc7)c6)nc45)cc23)c1` [Compound 486, N-(5-(3-(4-(3-Fluoro-5-(methylsulfonamidomethyl)phenyl)-1H-pyrrolo[3,2-c]pyridin-2-yl)-1H-pyrazolo[4,3-b]pyridin-5-yl)pyridin-3-yl)-2-phenylacetamide], in assay [1], the Emax amounted to 110% and the EC50 was 10 nM. Moreover, in the assay on IL-6, the pEC50 was less than 5.00 and the inhibition at 10 µM worked out at 28.5%.

`c1ccc(-c2ccc3[nH]nc(-c4cc5c(N6CCCCC6)nccc5[nH]4)c3n2)nc1` [Compound 196, 3-(4-(Piperidin-1-yl)-1H-pyrrolo[3,2-c]pyridin-2-yl)-5-(pyridin-2-yl)-1H-pyrazolo[4,3-b]pyridine]: in assay [1], the Emax amounted to 102% and the EC50 amounted to 100 nM. The compound also gave a pEC50 in the assay on IL-6 of 5.74.

On to `Cc1ncc(-c2ccc3[nH]nc(-c4cc5c(-c6ccncc6)nccc5[nH]4)c3n2)n1C` [Compound 573, 5-(1,2-Dimethyl-1H-imidazol-5-yl)-3-(4-(pyridin-4-yl)-1H-pyrrolo[3,2-c]pyridin-2-yl)-1H-pyrazolo[4,3-b]pyridine], for which, in assay [1], the Emax was 104% and the EC50 was determined as 30 nM. Also, in the assay on IL-6, the pEC50 was less than 5.00 and the inhibition at 10 µM was 0%.

Regarding `CS(=O)(=O)NCc1cc(F)cc(-c2nccc3[nH]c(-c4n[nH]c5ccc(-c6ccccn6)nc45)cc23)c1` [Compound 504, N-(3-Fluoro-5-(2-(5-(pyridin-2-yl)-1H-pyrazolo[4,3-b]pyridin-3-yl)-1H-pyrrolo[3,2-c]pyridin-4-yl)benzyl)methanesulfonamide], the Emax in assay [1] worked out at 24%. In the assay with IL-6, the pEC50 was less than 5.00 and the inhibition at 10 µM was found to be 0%.

On to `CN1CCN(c2nccc3[nH]c(-c4n[nH]c5ccc(-c6cncnc6)nc45)cc23)CC1` [Compound 251, 3-(4-(4-Methylpiperazin-1l-yl)-1H-pyrrolo[3,2-c]pyridin-2-yl)-5-(pyrimidin-5-yl)-1H-pyrazolo[4,3-b]pyridine], for which, in assay [1], the Emax is 56% and the EC50 was 100 nM. The compound also gave a pEC50 with IL-6 of 6.54.

Take `CN(C)Cc1cncc(-c2ccc3[nH]nc(-c4cc5c(-c6ccccc6F)nccc5[nH]4)c3n2)c1` [Compound 69, 1-(5-(3-(4-(2-Fluorophenyl)-1H-pyrrolo[3,2-c]pyridin-2-yl)-1H-pyrazolo [4,3-b]pyridin-5-yl)pyridin-3-yl)-N,N-dimethylmethanamine]: the Emax in assay [1] was found to be 7%. Moreover, the pEC50 with IL-6 is 5.94.

As for `CS(=O)(=O)NCc1cc(F)cc(-c2nccc3[nH]c(-c4n[nH]c5ccc(-c6cncc(CN7CCC(F)(F)C7)c6)nc45)cc23)c1` [Compound 502, N-(3-(2-(5-(5-((3,3-Difluoropyrrolidin-1-yl)methyl)pyridin-3-yl)-1H-pyrazolo[4,3-b]pyridin-3-yl)-1H-pyrrolo[3,2-c]pyridin-4-yl)-5-fluorobenzyl) methanesulfonamide], in assay [1], the Emax was determined as 148% and the EC50 is 10 nM. In addition, the pEC50 in the assay with IL-6 is 6.46.

For the compound `Fc1ccccc1-c1nccc2[nH]c(-c3n[nH]c4ccc(-c5cn[nH]c5)nc34)cc12` [Compound 539, 3-(4-(2-Fluorophenyl)-1H-pyrrolo[3,2-c]pyridin-2-yl)-5-(1H-pyrazol-4-yl)-1H-pyrazolo[4,3-b]pyridine], in assay [1], the Emax is 174% and the EC50 was found to be 100 nM. Also, in the assay on IL-6, the pEC50 was 6.99.

`c1cc2[nH]c(-c3n[nH]c4ccc(-c5cncc(OC6CCCCC6)c5)nc34)cc2c(N2CCCCC2)n1` [Compound 607, 5-(5-(Cyclohexyloxy)pyridin-3-yl)-3-(4-(piperidin-1-yl)-1H-pyrrolo[3,2-c]pyridin-2-yl)-1H-pyrazolo[4,3-b]pyridine]: in assay [1], the Emax came out at 163% and the EC50 was determined as 10 nM. Besides, the pEC50 in the assay with IL-6 was 5.75.

For `Fc1cccc(-c2nccc3[nH]c(-c4n[nH]c5ccc(-c6cncc(CN7CCCCC7)c6)nc45)cc23)c1` [Compound 15, 3-(4-(3-Fluorophenyl)-1H-pyrrolo[3,2-c]pyridin-2-yl)-5-(5-(piperidin-1-ylmethyl)pyridin-3-yl)-1H-pyrazolo[4,3-b]pyridine], the Emax in assay [1] amounted to 48%. Besides, in the assay with IL-6, the pEC50 is 5.03.

For the compound `Fc1ccccc1-c1nccc2[nH]c(-c3n[nH]c4ccc(-c5cncc(CNCc6ccccc6)c5)nc34)cc12` [Compound 80, N-Benzyl-1-(5-(3-(4-(2-fluorophenyl)-1H-pyrrolo[3,2-c]pyridin-2-yl)-1H-pyrazolo[4,3-b]pyridin-5-yl)pyridin-3-yl)methanamine], in assay [1], the Emax is 110% and the EC50 turned out to be 10 nM. Moreover, the pEC50 in the assay on IL-6 was 5.04.
